From patent publication US12601743B2, “Methods for treating drug resistant cancers” (The Regents of the University of California, priority 2017, dated 2026)
“Also recorded” adds a separate entry of the source.

How the values were obtained:
[1] = test system: YAP/TAZ expression in GBM cells; assay: YAP/TAZ expression after PAK4 inhibition (immunoblot); type: cell-based, human; conditions: FIG. 3H, FIG. 14C; U87MG, LN229
Method: Chemicals. Verteporfin (YAP inhibitor) was purchased from Sigma and used at the concentration of 0.5-10 μM for 24 hours. PF-03758309 (PAK4 inhibitor) was purchased from Chemietek and used at the concentration of 50 nM-1000 nM for 24 hours.
Immunoblotting. Proteins were extracted in RIPA buffer and quantified using the Pierce BCA kit (Thermo Fisher). 10-30 μg of protein was boiled in NuPage buffer (Thermo Fisher) and loaded onto a denaturing SDS-polyacrylamide gel (10%), transferred to PVDF membranes and blotted with anti-mouse or -rabbit HRP-conjugated secondary antibodies (Bio-Rad). The following antibodies were used for immunoblotting: β3 (Cell Signaling), Glut3 (Santa Cruz Biotechnology), YAP (Santa Cruz) YAP-XP (cell signaling), TAZ (Cell Signaling), PAK4 and pPAK4 (Cell Signaling), and Vinculin and β-actin (Sigma-Aldrich) as loading controls.

[2] = test system: glioblastoma; conditions: GBM patients; phase III CENTRIC, phase II CORE (Stupp et al., 2014); cited from earlier work
[3] = test system: GBM14, GBM64 and GBM85 GSCs; assay: GSC cell viability (CELLTITER-GLO), Mayo Clinic models predicted Glut3 addicted; type: cell-based, human; conditions: Classical or Proneural, Glut3 addicted signature, FIG. 17B
Method: (§1) Cell viability assay. U87MG, LN229, and LN18 cells were seeded at 1K cells per well in black 96-well plates in DMEM medium (no glucose) with 10% dialyzed FBS±glucose (0-4.5 g/L). Cell viability was determined by Alamar Blue dye (Life Technologies) according to manufacturer's instructions. For GSCs, cells were seeded at 10K cells per well in white 96-well low attachment plates in GSC medium±glucose (0-4.5 g/L). Viable cell numbers were evaluated using a CELLTITER-GLO™ assay kit (Promega). Each condition consisted of, at least, three replicate wells and data were expressed as relative luciferase units or as the percentage of survival of control cells.

[4] = test system: Ge479 orthotopic tumors; assay: Orthotopic brain tumor xenograft survival, Ge479; type: in vivo, mice; conditions: Ge479 (Glut3 addicted); systemic treatment; FIG. 21
Method: Orthotopic brain tumor xenografts. Intracranial transplantation of U87MG or GSC (Ge518 and Ge479) into 6-8-week-old nu/nu nude immunocompromised mice (Charles River Labs) was performed in accordance with the UCSD Institutional Animal Care and Use Committee. U87MG cells bearing β3, Glut3 shRNA or shβ3 ectopically expressing Glut3 as well as shRNA control (15 mice per group) were orthotopically transplanted following washing and resuspension in PBS. Ge479 and Ge518 were orthotopically transplanted following washing and resuspension in DMEM/F12. Mice were treated with vehicle (PBS) or cilengitide (10 mg kg 1 or 30 mg kg 1; 8 mice per group) five days per week. Briefly, with a stereotaxic frame (Stoelting Co.), a small burr hole was made in the skull 2 mm anterior and 2 mm lateral to the bregma. A 31-gauge Hamilton needle/syringe was inserted 3 mm, and 0.25 μl/minute was dispensed (10^5 tumor cells in 2 μl media). A total of 1×10^5 and 3×10^5 cells in 2 μl was injected respectively for U87MG cells and GSCs respectively.

[5] = test system: Ge738, GBM6, Ge970.2 and Ge885 GSCs; assay: GSC cell viability (CELLTITER-GLO), GSC with low β3/Glut3 expression; type: cell-based, human; conditions: GSC with low β3/Glut3 expression (Ge738, GBM6, Ge970.2, Ge885); FIG. 5D, 5H
Method: as §1

[6] = test system: GBM26 and GBM12 GSCs; assay: GSC cell viability (CELLTITER-GLO), Mayo Clinic β3/Glut3-low models; type: cell-based, human; conditions: FIG. 17A-B
Method: as §1

[7] = test system: GBM150 and GBM59 GSCs; assay: GSC cell viability (CELLTITER-GLO), Mayo Clinic models with Glut3 non-addicted signature; type: cell-based, human; conditions: mesenchymal, FIG. 17B
Method: as §1

Row | Structure (SMILES) | YAP/TAZ expression [1] | overall survival in clinical trials [2] | sensitivity (cell viability) [3] | survival of mice bearing orthotopic tumors [4] | effect on cell viability [5] | effect on cell viability [6] | sensitivity (cell viability) [7]
1 | Cc1nc(Nc2n[nH]c3c2CN(C(=O)N[C@H](CN(C)C)c2ccccc2)C3(C)C)c2sccc2n1 [PF-03758309] | decrease of YAP/TAZ expression |  |  |  |  |  | 
2 | CC(C)[C@H]1C(=O)N[C@@H](CCCN=C(N)N)C(=O)NCC(=O)N[C@@H](CC(=O)O)C(=O)N[C@H](Cc2ccccc2)C(=O)N1C [cilengitide, 2-[(2S,5R,8S,11S)-5-benzyl-11-{3-[(diaminomethylidene)amino]propyl}-7-methyl-3,6,9,12,15-pentaoxo-8-(propan-2-yl)-1,4,7,10,13-pentaazacyclopentadecan-2-yl]acetic acid] |  | failed to meet overall survival endpoints; also recorded: failed to produce a significant overall survival benefit | largely sensitive; also recorded: sensitivity to integrin blockade | dramatically prolongs the survival | moderate enhancement of viability | no effect or a moderate enhancement of viability | largely resistant; also recorded: not affected
